The target in this assay is T1, B6T173 (ZmPrx35) (Zea mays, UniProt B6T173).
T1 construct: recombinant from p84C3 cDNA, amplified from start codon to stop codon, pET19b (His-tag), E. coli BL21 (DE3) Rosetta gami; class III peroxidase
Put plainly: in-gel guaiacol-H2O2 activity staining of IMAC fractions. It counts as biochemical. The settings on record: H2O2 co-substrate; 20 mM guaiacol, 50 mM phosphate pH 6.8.

Results on one compound are retold here after article PMC4553411, “Identification of B6T173 (ZmPrx35) as the prevailing peroxidase in highly insect-resistant maize (Zea mays, p84C3) kernels by activity-directed purification” (Frontiers in Plant Science, 2015).

T1 sequence (B6T173 1-339): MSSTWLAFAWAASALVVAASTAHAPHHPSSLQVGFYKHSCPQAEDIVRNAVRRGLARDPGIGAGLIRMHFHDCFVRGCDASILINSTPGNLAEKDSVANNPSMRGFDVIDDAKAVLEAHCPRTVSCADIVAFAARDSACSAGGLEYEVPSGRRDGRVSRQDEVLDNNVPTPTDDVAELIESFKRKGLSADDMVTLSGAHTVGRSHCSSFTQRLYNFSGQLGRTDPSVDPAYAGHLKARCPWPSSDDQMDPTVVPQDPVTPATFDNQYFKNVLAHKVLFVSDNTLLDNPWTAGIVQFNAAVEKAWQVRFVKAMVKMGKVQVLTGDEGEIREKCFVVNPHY

With `COc1ccccc1O` [guaiacol], the “in-gel guaiacol-H2O2 activity staining of IMAC fractions” value was “Guaiacol-H2O2 staining of the same POD fractions”.
